The target of assay [1] is T1, zebrafish APLNR2a (zfAPLNR2a) (Danio rerio, UniProt Q7SZP9).
T1 construct: the open reading frame (ORF) of each APLNR was amplified from the animal; expressed in transfected cells; host or cells: HEK293
T1 sequence (Q7SZP9 1-362): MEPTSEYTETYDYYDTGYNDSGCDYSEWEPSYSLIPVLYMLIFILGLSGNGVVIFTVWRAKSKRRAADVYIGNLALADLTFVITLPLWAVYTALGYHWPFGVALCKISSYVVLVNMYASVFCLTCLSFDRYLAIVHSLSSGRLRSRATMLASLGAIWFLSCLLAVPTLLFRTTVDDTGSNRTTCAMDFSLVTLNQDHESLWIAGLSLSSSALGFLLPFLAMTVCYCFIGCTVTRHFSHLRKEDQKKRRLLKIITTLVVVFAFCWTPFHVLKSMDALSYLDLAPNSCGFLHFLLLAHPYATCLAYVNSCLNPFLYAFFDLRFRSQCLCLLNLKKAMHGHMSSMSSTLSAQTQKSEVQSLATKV
Briefly: pGL3-CRE-luciferase reporter assay, HEK293 cells expressing zebrafish APLNR2a. The assay is classed as cell-based. The conditions noted are these: SEM. The method, then:
(§1) In brief, HEK293 cells were cultured on a six-well plate and grown for 24 h before transfection. The cells were then transfected with a mixture containing 700 ng pGL3-CRE-Luciferase reporter construct (or pGL4-SRE-Luciferase reporter construct), 200 ng of receptor expression plasmid [or empty pcDNA3.1(+) vector as a negative control], and 2 μl jetPRIME (Polyplus Transfection, Illkirch, France) in 200 μl buffer. Twenty-four hour later, HEK293 cells were sub-cultured into a 96-well plate at 37°C for an additional 24 h before treatment. After removal of medium from the 96-well plate, the cells were treated with 100 μl peptide-containing medium (or peptide-free medium) for 6 h in the presence or absence of forskolin (5 μM). Finally, HEK293 cells were lysed with 1 × passive lysis buffer for luciferase assay (Promega, Madison, WI, USA) and the luciferase activity of the cell lysate was measured by a Multimode microplate Reader (TriStar LB 941, EG&G Berthold, Germany) according to the manufacturer's instruction.
(§2) The luciferase activity in each treatment group was expressed as the relative fold changes as compared with their respective control groups. The data were analyzed by non-linear regression followed by one-way ANOVA using GraphPad Prism 5 (GraphPad, San Diego, CA, USA). To validate the results, all experiments were repeated at least twice.

The target of assay [2] is T2, zebrafish APLNR2b (zfAPLNR2b) (Danio rerio, UniProt A0T2N3).
T2 construct: the open reading frame (ORF) of each APLNR was amplified from the animal; expressed in transfected cells; host or cells: HEK293
T2 sequence (A0T2N3 1-359): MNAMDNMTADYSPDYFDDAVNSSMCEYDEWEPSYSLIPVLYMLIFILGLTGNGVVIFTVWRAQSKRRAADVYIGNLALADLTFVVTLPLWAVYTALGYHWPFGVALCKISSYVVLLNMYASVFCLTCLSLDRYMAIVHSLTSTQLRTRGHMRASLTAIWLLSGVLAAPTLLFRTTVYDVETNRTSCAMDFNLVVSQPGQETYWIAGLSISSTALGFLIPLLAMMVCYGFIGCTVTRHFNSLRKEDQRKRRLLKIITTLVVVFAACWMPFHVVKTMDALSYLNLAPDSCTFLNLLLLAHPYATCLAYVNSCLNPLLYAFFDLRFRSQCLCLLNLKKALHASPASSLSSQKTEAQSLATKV
Put plainly: pGL3-CRE-luciferase reporter assay, HEK293 cells expressing zebrafish APLNR2b. The settings on record: SEM. The assay is classed as cell-based. The method, then:
as §1, §2
For orientation: Reporter assays use an easily measured gene product as a stand-in for the process of interest.

Assay [3] deals with zebrafish APLNR3a (zfAPLNR3a). Put plainly: pGL3-CRE-luciferase reporter assay, HEK293 cells expressing zebrafish APLNR3a. The assay is classed as cell-based, zebrafish (Danio rerio). The settings on record: HEK293 cells transiently expressing zfAPLNR3a, inhibition of forskolin (5 μM)-stimulated pGL3-CRE-luciferase activity, 6 h, mean ± S.E. of 3 independent experiments, N = EC50 cannot be evaluated. The method, then: as §1, §2

The subject of assay [4] is tilapia APLNR3b (tiAPLNR3b). Put plainly: pGL3-CRE-luciferase reporter assay, HEK293 cells expressing tilapia APLNR3b. The assay is classed as cell-based, Nile tilapia (Oreochromis niloticus). The settings on record: HEK293 cells transiently expressing tiAPLNR3b, inhibition of forskolin (5 μM)-stimulated pGL3-CRE-luciferase activity, 6 h, mean ± S.E. of 3 independent experiments, N = EC50 cannot be evaluated. On the procedure:
as §1, §2

The target of a further assay is T3, zebrafish APLNR2a (Danio rerio, UniProt Q7SZP9).
T3 construct: the open reading frame (ORF) of each APLNR was amplified from the animal; expressed in transfected cells; host or cells: HEK293
T3 sequence (Q7SZP9 1-362): T1 sequence (Q7SZP9 1-362)
Put plainly: Western blot of ERK1/2 phosphorylation, HEK293 cells expressing zebrafish APLNR2a. The conditions noted are these: 100 nM, duplicates, time-dependent (5, 10, 20 min). The assay is classed as cell-based. The method, then: HEK293 cells cultured in a 60-mm culture dish (Nunc, Rochester, NY, USA) with 70% confluence were transfected by 1 μg of receptor expression plasmid using jetPRIME reagent according to manufacturers' instruction (Polyplus Transfection, Illkirch, France). […] These cells were washed with cold PBS and lysed by RIPA Lysis Buffer (Roche, Basel, Switzerland) on ice. Western blot was used to examine ERK1/2 phosphorylation and β-actin levels in cell lysates.

In a further assay the test system is zebrafish APLNR3a. Put plainly: Western blot of ERK1/2 phosphorylation, HEK293 cells expressing zebrafish APLNR3a. The assay is classed as cell-based, zebrafish (Danio rerio). The method, then:
HEK293 cells cultured in a 60-mm culture dish (Nunc, Rochester, NY, USA) with 70% confluence were transfected by 1 μg of receptor expression plasmid using jetPRIME reagent according to manufacturers' instruction (Polyplus Transfection, Illkirch, France). After the 24-h transfection, HEK293 cells were sub-cultured into a 24-well plate, serum-deprived for 12 h and then treated by peptides for 10 min. These cells were washed with cold PBS and lysed by RIPA Lysis Buffer (Roche, Basel, Switzerland) on ice. Western blot was used to examine ERK1/2 phosphorylation and β-actin levels in cell lysates.
For orientation: Immunoblotting shows a protein as a band on a membrane.

Residues, ends and D or L forms follow the SMILES beside them. No end group written: not given here.

As to `CC(C)C[C@H](NC(=O)[C@H](CC(N)=O)NC(=O)[C@H](CC(C)C)NC(=O)[C@H](Cc1ccccc1)NC(=O)[C@H](CC(=O)O)NC(=O)[C@H](Cc1c[nH]cn1)NC(=O)[C@H](CCCCN)NC(=O)[C@@H](NC(=O)CNC(=O)[C@H](Cc1c[nH]cn1)NC(=O)[C@H](CCCCN)NC(=O)[C@@H](N)CC(=O)O)[C@@H](C)O)C(=O)N[C@@H](CCCNC(=N)N)C(=O)N[C@@H](CCCNC(=N)N)C(=O)N[C@@H](CCCCN)C(=O)N[C@@H](Cc1ccc(O)cc1)C(=O)N[C@@H](CCCNC(=N)N)C(=O)N[C@@H](CCCNC(=N)N)C(=O)N[C@@H](Cc1c[nH]cn1)C(=O)N[C@@H](CC(N)=O)C(=O)N[C@@H](CS)C(=O)N1CCC[C@H]1C(=O)N[C@@H](CCCCN)C(=O)N[C@@H](CCCCN)C(=O)N[C@@H](CCCNC(=N)N)C(=O)N[C@@H](CS)C(=O)N[C@@H](CC(C)C)C(=O)N1CCC[C@H]1C(=O)N[C@@H](CC(C)C)C(=O)N[C@@H](Cc1c[nH]cn1)C(=O)N[C@@H](CO)C(=O)N[C@@H](CCCNC(=N)N)C(=O)N[C@H](C(=O)N1CCC[C@H]1C(=O)N[C@@H](Cc1ccccc1)C(=O)N1CCC[C@H]1C(=O)O)C(C)C` [zfELA-36] (H-DKHGTKHDFLNLRRKYRRHNCPKKRCLPLHSRVPFP-OH; N-terminus and C-terminus assumed), the EC50 in assay [1] is 1.61 ± 0.8 nM; in assay [2], 1.29 ± 0.9 nM; in assay [3], > 100 nM; in assay [4] it was > 100 nM. The “phosphorylation of ERK1/2, Western blot” value at zebrafish APLNR2a is reported as “can enhance phosphorylation of ERK1/2”. Further, in the assay with zebrafish APLNR3a, the “ERK1/2 phosphorylation, Western blot” value is “not ELA-36”.
Turning to “TPLRQNPARAGRSQRPAGWRRRRPRPRLSHKGPMPF [zfApelin-36]”, the EC50 was 0.89 ± 0.44 nM in assay [1], 0.51 ± 0.31 nM in assay [2], 0.45 ± 0.12 nM in assay [3] (SEM) and 0.77 ± 0.24 nM in assay [4] (SEM). For the same compound, at zebrafish APLNR2a, the “phosphorylation of ERK1/2, Western blot” value is given as “can enhance phosphorylation of ERK1/2”. Besides, the “ERK1/2 phosphorylation, Western blot” value with zebrafish APLNR3a is given as “can induce ERK1/2 phosphorylation”.

One may read the EC50 as the concentration needed to bring the measured effect to its halfway point.
